Patent publication US20230183292A1, “IMMUNOMODULATORS” (priority 2020, published 2023)
Where two headings read alike, the source gives them in different places. Starred links: 1 amine or outer side, 2 acyl side, 3 side chain; linkers in the order of their positions; H or OH if unused. Positions of bridges follow the written chain, without caps; N, C: chain ends. Non-standard residues stand in square brackets, D forms with d. Residues, ends and D or L forms follow the SMILES beside them. Groups on a side chain read outwards from the residue. *: point of attachment. Cholyl = C[C@H](CCC(=O)*)[C@H]1CC[C@H]2[C@@H]3[C@H](O)C[C@@H]4C[C@H](O)CC[C@]4(C)[C@H]3C[C@H](O)[C@]12C; Dehydrocholoyl = C[C@H](CCC(=O)*)[C@H]1CC[C@H]2[C@@H]3C(=O)C[C@@H]4CC(=O)CC[C@]4(C)[C@H]3CC(=O)[C@]12C; X35 = O=C(Cn1cc(C[C@H](N[*:1])C(=O)[*:2])c2ccccc21)NCC(F)(F)F; X27 = O=C(Cn1cc(C[C@H](N[*:1])C(=O)[*:2])c2ccccc21)Oc1ccccc1; X4 = O=C(Cn1cc(C[C@H](N[*:1])C(=O)[*:2])c2ccccc21)OCCOCCO; X32 = CCCNC(=O)Cn1cc(C[C@H](N[*:1])C(=O)[*:2])c2ccccc21; X1 = NCCNC(=O)Cn1cc(C[C@H](N[*:1])C(=O)[*:2])c2ccccc21; Pro(4R-Me) = C[C@H]1CN[C@H](C(=O)O)C1; Hyp = O=C(O)[C@@H]1C[C@@H](O)CN1; NMeNle = CCCC[C@H](NC)C(=O)O; NMeA = CN[C@@H](C)C(=O)O; Dab = NCC[C@H](N)C(=O)O; Dap = NC[C@H](N)C(=O)O

Biological target: T1, PD-1/PD-L1 (Homo sapiens, UniProt Q9NZQ7)
T1 construct: TVMV protease site (C); made in house; host or cells: HEK293T cells
Assay: PD-1/PD-L1 Homogenous Time-Resolved Fluorescence (HTRF) binding assay
Settings: PD-1-Ig 20 nM
How it was run: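 Inhibitors pre-incubated 15 min with PD-L1-His (10 nM final) in dPBS, 0.1% BSA, 0.05% Tween-20, then 15 min with PD-1-Ig (20 nM final). Eu-cryptate anti-Ig (1 nM) and APC anti-His (20 nM) added, 30 min equilibration; HTRF 665/620 nm ratio. Human ECD proteins from HEK293T.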

[1] = PD-L1-His 10 nM, read-out: HTRF IC50

T1 sequence (Q9NZQ7 18-239): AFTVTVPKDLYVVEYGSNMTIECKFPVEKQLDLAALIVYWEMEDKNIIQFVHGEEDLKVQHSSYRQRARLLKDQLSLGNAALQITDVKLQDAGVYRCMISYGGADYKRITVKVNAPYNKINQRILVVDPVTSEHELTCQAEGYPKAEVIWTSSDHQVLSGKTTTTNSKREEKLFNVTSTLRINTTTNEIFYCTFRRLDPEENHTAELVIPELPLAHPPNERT

Question: Which IC50 [1] does the source give for `CCCCCCOC(=O)Cn1cc(C[C@@H]2NC(=O)[C@H](CCNC(=O)CC[C@@H](C)[C@H]3CC[C@H]4[C@@H]5C(=O)C[C@@H]6CC(=O)CC[C@]6(C)[C@H]5CC(=O)[C@]34C)NC(=O)[C@H](Cc3c[nH]c4ccccc34)NC(=O)[C@@H]3C[C@@H](O)CN3C(=O)[C@H](CC(C)C)NC(=O)[C@H](CNC(=O)CC[C@@H](C)[C@H]3CC[C@H]4[C@@H]5C(=O)C[C@@H]6CC(=O)CC[C@]6(C)[C@H]5CC(=O)[C@]34C)NC[C@@H]3CCCN3C(=O)[C@H](CC(N)=O)NC(=O)[C@H](C)N(C)C(=O)[C@H](Cc3ccc(O)cc3)NC(=O)CSC[C@@H](C(=O)NCC(N)=O)NC(=O)[C@H](CC(C)C)NC(=O)[C@H](CCCC)N(C)C(=O)[C@H](CCCC)N(C)C2=O)c2ccccc21` [Example 2014] here?
Answer: 4600 nM

Question: How did the IC50 (HTRF IC50, PD-L1-His 10 nM) turn out when `CCCC[C@H]1C(=O)N(C)[C@@H](CCCC)C(=O)N[C@@H](CC(C)C)C(=O)N[C@H](C(=O)NCC(N)=O)CSCC(=O)N[C@@H](Cc2ccc(O)cc2)C(=O)N(C)[C@@H](C)C(=O)N[C@@H](CC(N)=O)C(=O)N2CCC[C@H]2C(=O)N[C@@H](CNC(=O)CC[C@@H](C)[C@H]2CC[C@H]3[C@@H]4C(=O)C[C@@H]5CC(=O)CC[C@]5(C)[C@H]4CC(=O)[C@]23C)C(=O)N[C@@H](CC(C)C)C(=O)N2C[C@H](O)C[C@H]2C(=O)N[C@@H](Cc2c[nH]c3ccccc23)C(=O)N[C@@H](CCNC(=O)CC[C@@H](C)[C@H]2CC[C@H]3[C@@H]4C(=O)C[C@@H]5CC(=O)CC[C@]5(C)[C@H]4CC(=O)[C@]23C)C(=O)N[C@@H](Cc2cn(CC(=O)Oc3ccccc3)c3ccccc23)C(=O)N1C` [Example 2015] ({CH2CO}-Y[NMeA]NP[Dap](Dehydrocholoyl)L[Hyp]W[Dab](Dehydrocholoyl)[X27][NMeNle][NMeNle]LCG-NH2; thioether N-14) was run?
Answer: 20 nM

Question: How did the IC50 [1] turn out when `CCCC[C@H]1C(=O)N(C)[C@@H](CCCC)C(=O)N[C@@H](CC(C)C)C(=O)N[C@H](C(=O)NCC(N)=O)CSCC(=O)N[C@@H](Cc2ccc(O)cc2)C(=O)N(C)[C@@H](C)C(=O)N[C@@H](CC(N)=O)C(=O)N2CCC[C@H]2C(=O)N[C@@H](CNC(=O)CC[C@@H](C)[C@H]2CC[C@H]3[C@@H]4C(=O)C[C@@H]5CC(=O)CC[C@]5(C)[C@H]4CC(=O)[C@]23C)C(=O)N[C@@H](CC(C)C)C(=O)N2C[C@H](O)C[C@H]2C(=O)N[C@@H](Cc2c[nH]c3ccccc23)C(=O)N[C@@H](CCNC(=O)CC[C@@H](C)[C@H]2CC[C@H]3[C@@H]4C(=O)C[C@@H]5CC(=O)CC[C@]5(C)[C@H]4CC(=O)[C@]23C)C(=O)N[C@@H](Cc2cn(CC(=O)OCCOCCO)c3ccccc23)C(=O)N1C` [Example 2016] ({CH2CO}-Y[NMeA]NP[Dap](Dehydrocholoyl)L[Hyp]W[Dab](Dehydrocholoyl)[X4][NMeNle][NMeNle]LCG-NH2; thioether N-14) was run?
Answer: 15 nM

Question: With `CCCC[C@H]1C(=O)N(C)[C@@H](CCCC)C(=O)N[C@@H](CC(C)C)C(=O)N[C@H](C(=O)NCC(N)=O)CSCC(=O)N[C@@H](Cc2ccc(O)cc2)C(=O)N(C)[C@@H](C)C(=O)N[C@@H](CC(N)=O)C(=O)N2CCC[C@H]2C(=O)N[C@@H](CNC(=O)CC[C@@H](C)[C@H]2CC[C@H]3[C@@H]4C(=O)C[C@@H]5CC(=O)CC[C@]5(C)[C@H]4CC(=O)[C@]23C)C(=O)N[C@@H](CC(C)C)C(=O)N2C[C@H](O)C[C@H]2C(=O)N[C@@H](Cc2c[nH]c3ccccc23)C(=O)N[C@@H](CCNC(=O)CC[C@@H](C)[C@H]2CC[C@H]3[C@@H]4C(=O)C[C@@H]5CC(=O)CC[C@]5(C)[C@H]4CC(=O)[C@]23C)C(=O)N[C@@H](Cc2cn(CC(=O)NCC(F)(F)F)c3ccccc23)C(=O)N1C` [Example 2018] ({CH2CO}-Y[NMeA]NP[Dap](Dehydrocholoyl)L[Hyp]W[Dab](Dehydrocholoyl)[X35][NMeNle][NMeNle]LCG-NH2; thioether N-14) as the compound, how does the IC50 [1] read?
Answer: 17 nM

Question: `CCCC[C@H]1C(=O)N(C)[C@@H](CCCC)C(=O)N[C@@H](CC(C)C)C(=O)N[C@H](C(=O)NCC(N)=O)CSCC(=O)N[C@@H](Cc2ccc(O)cc2)C(=O)N(C)[C@@H](C)C(=O)N[C@@H](CC(N)=O)C(=O)N2CCC[C@H]2C(=O)N[C@@H](CNC(=O)CC[C@@H](C)[C@H]2CC[C@H]3[C@@H]4C(=O)C[C@@H]5CC(=O)CC[C@]5(C)[C@H]4CC(=O)[C@]23C)C(=O)N[C@@H](CC(C)C)C(=O)N2C[C@H](O)C[C@H]2C(=O)N[C@@H](Cc2c[nH]c3ccccc23)C(=O)N[C@@H](CCNC(=O)CC[C@@H](C)[C@H]2CC[C@H]3[C@@H]4C(=O)C[C@@H]5CC(=O)CC[C@]5(C)[C@H]4CC(=O)[C@]23C)C(=O)N[C@@H](Cc2cn(CC(=O)NCCN)c3ccccc23)C(=O)N1C` [Example 2019] ({CH2CO}-Y[NMeA]NP[Dap](Dehydrocholoyl)L[Hyp]W[Dab](Dehydrocholoyl)[X1][NMeNle][NMeNle]LCG-NH2; thioether N-14) was tested. Which IC50 [1] did it give?
Answer: 19 nM

Question: For `CCCC[C@H]1C(=O)N(C)[C@@H](CCCC)C(=O)N[C@@H](CC(C)C)C(=O)N[C@H](C(=O)NCC(N)=O)CSCC(=O)N[C@@H](Cc2ccc(O)cc2)C(=O)N(C)[C@@H](C)C(=O)N[C@@H](CC(N)=O)C(=O)N2CCC[C@H]2C(=O)N[C@@H](CNC(=O)CC[C@@H](C)[C@H]2CC[C@H]3[C@@H]4[C@H](O)C[C@@H]5C[C@H](O)CC[C@]5(C)[C@H]4C[C@H](O)[C@]23C)C(=O)N[C@@H](CC(C)C)C(=O)N2C[C@H](O)C[C@H]2C(=O)N[C@@H](Cc2c[nH]c3ccccc23)C(=O)N[C@@H](CCNC(=O)CC[C@@H](C)[C@H]2CC[C@H]3[C@@H]4[C@H](O)C[C@@H]5C[C@H](O)CC[C@]5(C)[C@H]4C[C@H](O)[C@]23C)C(=O)N[C@@H](Cc2cn(CC(=O)NCCN)c3ccccc23)C(=O)N1C` [Example 2021] ({CH2CO}-Y[NMeA]NP[Dap](Cholyl)L[Hyp]W[Dab](Cholyl)[X1][NMeNle][NMeNle]LCG-NH2; thioether N-14), which IC50 [1] is on record?
Answer: 180 nM

Question: How did the IC50 [1] turn out when `CCCC[C@H]1C(=O)N(C)[C@@H](CCCC)C(=O)N[C@@H](CC(C)C)C(=O)N[C@H](C(=O)NCC(N)=O)CSCC(=O)N[C@@H](Cc2ccc(O)cc2)C(=O)N(C)[C@@H](C)C(=O)N[C@@H](CC(N)=O)C(=O)N2CCC[C@H]2C(=O)N[C@@H](CNC(=O)CC[C@@H](C)[C@H]2CC[C@H]3[C@@H]4[C@H](O)C[C@@H]5C[C@H](O)CC[C@]5(C)[C@H]4C[C@H](O)[C@]23C)C(=O)N[C@@H](CC(C)C)C(=O)N2C[C@H](O)C[C@H]2C(=O)N[C@@H](Cc2c[nH]c3ccccc23)C(=O)N[C@@H](CCNC(=O)CC[C@@H](C)[C@H]2CC[C@H]3[C@@H]4[C@H](O)C[C@@H]5C[C@H](O)CC[C@]5(C)[C@H]4C[C@H](O)[C@]23C)C(=O)N[C@@H](Cc2cn(CC(=O)NCCC)c3ccccc23)C(=O)N1C` [Example 2023] ({CH2CO}-Y[NMeA]NP[Dap](Cholyl)L[Hyp]W[Dab](Cholyl)[X32][NMeNle][NMeNle]LCG-NH2; thioether N-14) was run?
Answer: 660 nM

Question: Which IC50 [1] does the source give for `CCCC[C@H]1C(=O)N(C)[C@@H](CCCC)C(=O)N[C@@H](CC(C)C)C(=O)N[C@H](C(=O)NCC(N)=O)CSCC(=O)N[C@@H](Cc2ccc(O)cc2)C(=O)N(C)[C@@H](C)C(=O)N[C@@H](CC(N)=O)C(=O)N2CCC[C@H]2C(=O)N[C@@H](CNC(=O)CNC(=O)CC[C@@H](C)[C@H]2CC[C@H]3[C@@H]4[C@H](O)C[C@@H]5C[C@H](O)CC[C@]5(C)[C@H]4C[C@H](O)[C@]23C)C(=O)N[C@@H](CC(C)C)C(=O)N2C[C@H](C)C[C@H]2C(=O)N[C@@H](Cc2c[nH]c3ccccc23)C(=O)N[C@@H](CCNC(=O)CNC(=O)CC[C@@H](C)[C@H]2CC[C@H]3[C@@H]4[C@H](O)C[C@@H]5C[C@H](O)CC[C@]5(C)[C@H]4C[C@H](O)[C@]23C)C(=O)N[C@@H](Cc2cn(CC(=O)NCCN)c3ccccc23)C(=O)N1C` [Example 2026] ({CH2CO}-Y[NMeA]NP[Dap]([Gly-Cholyl])L[Pro(4R-Me)]W[Dab]([Gly-Cholyl])[X1][NMeNle][NMeNle]LCG-NH2; thioether N-14) here?
Answer: 400 nM

Question: Which IC50 [1] does the source give for `CCCC[C@H]1C(=O)N(C)[C@@H](CCCC)C(=O)N[C@@H](CC(C)C)C(=O)N[C@H](C(=O)NCC(N)=O)CSCC(=O)N[C@@H](Cc2ccc(O)cc2)C(=O)N(C)[C@@H](C)C(=O)N[C@@H](CC(N)=O)C(=O)N2CCC[C@H]2C(=O)N[C@@H](CNC(=O)CNC(=O)CC[C@@H](C)[C@H]2CC[C@H]3[C@@H]4[C@H](O)C[C@@H]5C[C@H](O)CC[C@]5(C)[C@H]4C[C@H](O)[C@]23C)C(=O)N[C@@H](CC(C)C)C(=O)N2C[C@H](C)C[C@H]2C(=O)N[C@@H](Cc2c[nH]c3ccccc23)C(=O)N[C@@H](CCNC(=O)CNC(=O)CC[C@@H](C)[C@H]2CC[C@H]3[C@@H]4[C@H](O)C[C@@H]5C[C@H](O)CC[C@]5(C)[C@H]4C[C@H](O)[C@]23C)C(=O)N[C@@H](Cc2cn(CC(=O)NCCC)c3ccccc23)C(=O)N1C` [Example 2027] ({CH2CO}-Y[NMeA]NP[Dap]([Gly-Cholyl])L[Pro(4R-Me)]W[Dab]([Gly-Cholyl])[X32][NMeNle][NMeNle]LCG-NH2; thioether N-14) here?
Answer: 990 nM
